From publication PMC6728334 (Scientific Reports, 2019)
Values joined by “and” are separate entries in the source; they are usually repeats but may differ in a detail not shown here. Identical values can stand only once. “Also recorded” adds a separate entry of the source. Like-named read-outs stand apart in the source and are kept apart here.

How the values were obtained:
Uba1 [1] = target: T1, Uba1 (Homo sapiens, UniProt P22314); experiment: Uba1~ubiquitin thioester formation (Uba1, GST-ubiquitin, ATP; silver-stained gels); type: biochemical; details: for Activity in the Uba1~ubiquitin thioester formation assay (in words): up to 500 μM
T1 construct: His; host or cells: E. coli BL21(DE3)
T1 sequence (P22314 1-1058): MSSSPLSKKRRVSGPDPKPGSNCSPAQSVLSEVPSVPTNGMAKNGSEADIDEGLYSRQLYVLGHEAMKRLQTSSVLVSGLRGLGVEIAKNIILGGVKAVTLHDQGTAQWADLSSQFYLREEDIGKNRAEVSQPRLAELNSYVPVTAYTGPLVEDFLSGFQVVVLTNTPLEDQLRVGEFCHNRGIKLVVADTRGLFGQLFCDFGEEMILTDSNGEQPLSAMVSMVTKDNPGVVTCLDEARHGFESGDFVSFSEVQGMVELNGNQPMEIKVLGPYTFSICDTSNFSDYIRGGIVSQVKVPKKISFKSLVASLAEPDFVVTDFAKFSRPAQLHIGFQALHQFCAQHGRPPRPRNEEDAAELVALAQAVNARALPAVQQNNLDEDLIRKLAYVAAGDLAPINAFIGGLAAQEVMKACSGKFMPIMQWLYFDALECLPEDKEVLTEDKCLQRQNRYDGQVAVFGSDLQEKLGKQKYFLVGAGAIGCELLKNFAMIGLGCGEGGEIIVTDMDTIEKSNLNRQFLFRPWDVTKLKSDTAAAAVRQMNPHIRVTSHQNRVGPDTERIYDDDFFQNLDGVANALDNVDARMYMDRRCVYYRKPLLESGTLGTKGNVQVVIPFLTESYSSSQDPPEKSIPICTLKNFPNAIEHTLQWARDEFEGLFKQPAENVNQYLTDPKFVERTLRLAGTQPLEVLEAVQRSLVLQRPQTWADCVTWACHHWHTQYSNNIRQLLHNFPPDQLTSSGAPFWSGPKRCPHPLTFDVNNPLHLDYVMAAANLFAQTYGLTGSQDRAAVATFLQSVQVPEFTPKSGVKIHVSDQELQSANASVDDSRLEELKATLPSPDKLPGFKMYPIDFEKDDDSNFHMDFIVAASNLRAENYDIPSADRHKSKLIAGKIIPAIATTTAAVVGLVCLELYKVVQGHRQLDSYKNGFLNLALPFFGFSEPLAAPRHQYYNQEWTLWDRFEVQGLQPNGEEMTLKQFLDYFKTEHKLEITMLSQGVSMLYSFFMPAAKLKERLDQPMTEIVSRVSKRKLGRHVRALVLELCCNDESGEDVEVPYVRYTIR

HEK 293FT cells = experiment: Cell survival, Alamar Blue (resazurin) assay; type: cell-based, human; details: for IC50 / Activity on cell viability / survival (in words): 24-h treatment; for IC50: 2% DMSO, read-out: IC50 for inhibition of cell survival
Method: For cellular experiments, HEK 293FT cells (a fast-growing SV40 large T antigen-transformed strain of HEK 293 cells designed for enhanced transgene expression in transient transfections) were grown in growth medium consisting of Dulbecco’s modified Eagle’s medium (DMEM; Sigma-Aldrich), supplemented with 10% fetal bovine serum (FBS; Gibco) in a humified cell culture incubator at 37 °C with 5% CO2.
(§1) HEK 293FT cells were evaluated for survival following compound treatments by the Alamar Blue (resazurin) assay. Cells were plated onto 96-well plates at 4.8 × 10^4 cells/well in 0.5% FBS-containing DMEM at 37 °C and 5% CO2. After 24 h, compounds were added. After 24-h treatment, resazurin was added to a final concentration of 0.12 mM. Following 4-h incubation, conversion to the resorufin product was measured (with excitation at 542 nm and emission at 590 nm) on a fluorescence plate reader.

[2] = test system: PCNA ubiquitination (RFC, Uba1, Rad6, Rad18, PCNA, ubiquitin); experiment: Reconstituted PCNA ubiquitination cascade, Western blot quantitation; type: biochemical, human; details: for IC50: 15 min preincubation, 2 h with ATP, 2% DMSO, nonlinear regression, read-out: IC50 for inhibition of PCNA ubiquitination; for Activity in the PCNA ubiquitination assay (in words): up to 500 μM
Method: The PCNA loading and ubiquitination cascade was reconstituted in 96-well white round-bottom polypropylene plates (Greiner) in a buffer consisting of 40 mM Tris-HCl, pH 7.5, 8 mM MgCl2, and 10% glycerol with 2.5 nM nicked circular pUC19, 50 nM RFC, 50 nM Uba1, 250 nM Rad6–Rad18 dimer, 50 nM FLAG-PCNA, and 250 nM biotin-ubiquitin (final concentrations). Compounds were added to the samples, with preincubation for 15 min at 25 °C before addition of ATP to a final concentration of 2 mM (to initiate the reaction cascade), followed by incubation for 2 h at 25 °C. The reactions were then terminated by addition of EDTA to 20 mM for Alpha assays or Laemmli sample buffer for Western blot analyses. For Alpha assays, reaction mixtures were diluted in buffer containing streptavidin-conjugated donor beads and anti-FLAG antibody-conjugated acceptor beads in opaque white microplates under low-light conditions, as recommended by the Alpha bead manufacturer, PerkinElmer. The plates were read on a Tecan Spark microplate reader at 23 °C. For Western blot analyses, FLAG-PCNA was detected with anti-FLAG antibody, and quantitations from the Western blot images was performed with NIH ImageJ software[74] and then analyzed with GraphPad Prism software.

[3] = test system: ubiquitin-overexpressing HEK 293 cells; experiment: Cell survival in ubiquitin-overexpressing cells vs empty vector-transfected control cells; type: cell-based, human; details: 24-h treatment at IC50 of each compound (Myr 3 mM, DM 650 μM; puromycin 1 and 2 μM)
Method: as §1
(§2) HEK 293FT cells (1.5 × 10^6) were plated onto 6-cm plates in 5 ml of DMEM with 10% FBS and allowed to grow for 24 h at 37 °C and 5% CO2. For transfections, 6 μg of plasmid DNA (empty vector containing FLAG-tag sequence only, FLAG-Uba1, or FLAG-ubiquitin) and 10 μl of Lipofectamine 2000 were used for each plate. The DNA and the reagent were diluted separately in 500 μl of Opti-MEM (Gibco), and each was mixed by vortexing. After 5-min incubation, the two tubes were combined and incubated for another 20 min. Prior to adding the transfection solution to the cells, the medium was replaced with 4 ml of Opti-MEM. The transfection solution was then added dropwise. After 3-h incubation, the medium was changed to 0.5% FBS-containing DMEM, and the cells were plated for cell survival experiments, as above.

[4] = test system: Uba1-overexpressing HEK 293 cells; experiment: Cell survival in Uba1-overexpressing cells vs empty vector-transfected control cells; type: cell-based, human; details: 24-h treatment at IC50 of each compound (Myr 3 mM, DM 650 μM; puromycin 1 and 2 μM)
Method: as §1, §2

Uba1 [5] = target: T1, Uba1; experiment: Reversibility: Uba1 preincubation, washout by centrifugal filtration, then PCNA ubiquitination; type: biochemical; details: 30 μM compound preincubated with Uba1 for 2 h, then washed out
Method: Samples were then transferred to YM-30 Microcon centrifugal concentrators (Merck Millipore), diluted in buffer (40 mM Tris-HCl, pH 7.5, 8 mM MgCl2, and 10% glycerol), then serially centrifuged with additions of buffer to the remaining retentate between each spin, for final dilutions of compounds to <0.05% of original concentrations. The resulting samples were then tested in PCNA ubiquitination reactions.

[6] = Uba1 preincubated with compound 15 min, 2 h reaction, 2% DMSO, read-out: IC50 for inhibition of Uba1~ubiquitin thioester formation

Row | Compound | IC50 (Uba1 [1]; [6]) | Activity in the Uba1~ubiquitin thioester formation assay (in words) (Uba1 [1]) | IC50 [2] [µM] | IC50 (Uba1 [1]; Fig. 6, unit printed as M, read-out: IC50 (Uba1~Ub)) [µM] | Activity in the cell viability experiments at 500 μM (HEK 293FT cells; 24 h) | IC50 (HEK 293FT cells; Homo sapiens, HEK293FT, 24 h) [µM] | Activity in the PCNA ubiquitination assay (in words) [2] | Activity on cell viability / survival (in words) (HEK 293FT cells) | IC50 (HEK 293FT cells) [µM] | Effect of ubiquitin overexpression on cell survival [3] | Effect of Uba1 overexpression on cell survival [4] | Reversibility of inhibition of Uba1 and PCNA ubiquitination after washout (Uba1 [5]) | Uba1~ubiquitin thioester formation, ubiquitin alone preincubated with compound before Uba1 and ATP (Uba1 [1]; EGCG 10 μM, Myr 50 μM) | IC50 (Uba1 [1]; Fig. 6, read-out: IC50 (Uba1~Ub)) [µM]
1 | Oc1cc(O)c2c(c1)O[C@H](c1ccc(O)c(O)c1)[C@@H](O)C2 [Cat, (+)-Catechin] | > 500 µM | inactive | > 500 | – | only very weak activity | > 500 | inactive | – | – | – | – | – | – | –
2 | Oc1cc(O)c2c(c1)O[C@H](c1cc(O)c(O)c(O)c1)[C@H](O)C2 [EGC, (–)-Epigallocatechin] | 7.6 µM and 7.58 µM | weak activity | 43.3 | – | – | 176 | weak activity | measurable cytostatic/cytotoxic activity | 176 | not affected; also recorded: Does not protect | not affected; also recorded: Does not protect | – | – | –
3 | O=C(O)c1cc(O)c(O)c(O)c1 [GA, Gallic acid] | > 500 µM | inactive | > 500 | – | – | 241 | inactive | little effects | 241 | not mitigated; also recorded: Does not protect | not mitigated; also recorded: Does not protect | – | – | –
4 | O=c1c(O)c(-c2cc(O)c(O)c(O)c2)oc2cc(O)cc(O)c12 [Myr, Myricetin] | 0.721 µM | active | 1.21 | – | only very weak activity | > 500 | active | very weak activity | – | Protects | Protects | reversible | resulted in inhibition | 0.721
5 | COc1ccc(C[C@H](N)C(=O)N[C@H]2[C@@H](O)[C@H](n3cnc4c(N(C)C)ncnc43)O[C@@H]2CO)cc1 [puromycin, reference compound] | – | – | – | – | – | – | – | – | – | no differences | no differences | – | – | –

Further lines, with some results ahead:

Row | IC50 (Uba1 [1]; [6]) | Activity in the Uba1~ubiquitin thioester formation assay (in words) (Uba1 [1]) | IC50 [2] [µM] | IC50 (Uba1 [1]; Fig. 6, unit printed as M, read-out: IC50 (Uba1~Ub)) [µM] | Compound | Activity in the cell viability experiments at 500 μM (HEK 293FT cells; 24 h) | IC50 (HEK 293FT cells; Homo sapiens, HEK293FT, 24 h) [µM] | Activity in the PCNA ubiquitination assay (in words) [2] | Activity on cell viability / survival (in words) (HEK 293FT cells) | IC50 (HEK 293FT cells) [µM] | Effect of ubiquitin overexpression on cell survival [3] | Effect of Uba1 overexpression on cell survival [4] | Reversibility of inhibition of Uba1 and PCNA ubiquitination after washout (Uba1 [5]) | Uba1~ubiquitin thioester formation, ubiquitin alone preincubated with compound before Uba1 and ATP (Uba1 [1]; EGCG 10 μM, Myr 50 μM) | IC50 (Uba1 [1]; Fig. 6, read-out: IC50 (Uba1~Ub)) [µM]
6 | 35 µM | active | 1.63 | – | CCCCCCCCCCCCOC(=O)c1cc(O)c(O)c(O)c1 [DG, n-Dodecyl gallate] | – | 33.5 | active | active | 33.5 | Protects | Does not protect | – | – | –
7 | 14.3 µM | – | 66.4 | 14.3 | O=C1c2c(O)cc(O)cc2O[C@H](c2cc(O)c(O)c(O)c2)[C@H]1O [DM, (+)-Dihydromyricetin] | only very weak activity | > 500 | active | very weak activity | – | Protects | Does not protect | – | – | –
8 | > 500 µM | inactive | > 500 | – | Oc1cc(O)c2c(c1)O[C@H](c1ccc(O)c(O)c1)[C@H](O)C2 [EC, (–)-Epicatechin] | only very weak activity | > 500 | inactive | – | – | – | – | – | – | –
9 | 4.2 µM and 4.22 µM | active | 0.537 | – | O=C(O[C@@H]1Cc2c(O)cc(O)cc2O[C@@H]1c1ccc(O)c(O)c1)c1cc(O)c(O)c(O)c1 [ECG, (–)-Epicatechin-3-gallate] | – | 262 | active | active | 262 | mitigated; also recorded: Protects | mitigated; also recorded: Protects | – | – | –
10 | 80.6 µM | active | 10.3 | – | CCCCCCCCOC(=O)c1cc(O)c(O)c(O)c1 [OG, n-Octyl gallate] | – | 38.7 | active | active | – | Protects | Protects | – | – | –
11 | > 500 µM | inactive | > 500 | – | CCCOC(=O)c1cc(O)c(O)c(O)c1 [PG, n-Propyl gallate] | – | 176 | inactive | little effects | 176 | not mitigated; also recorded: Does not protect | not mitigated; also recorded: Does not protect | – | – | –
